Laboratory results published in patent publication US9526705B2, “Lipidated glycosaminoglycan particles and their use in drug and gene delivery for diagnosis and therapy” (Tel-Aviv University Future Technology Development L.P., priority 2001, dated 2016).

Experiments:
[1] = Efficiency of entrapment in gagomers (absorbency, ELISA plate reader); format: physicochemical
Method: The efficiency of entrapment of drugs or other bioactive agents in the gagomers and the kinetics of drug efflux for small molecular weight drugs were determined using absorbency in an ELISA plate reader, with appropriate wavelengths for each given entrapped entity.

[2] = calculated from efflux rate constant, 50 minutes incubation
From the text: The independent variable is time. The dependent variable (f) is the percentage of drug released at time=t with respect to the total drug in the system at time t=0.

B16F10 (mouse melanoma) = assay: Tumor metastasis model: lung metastases after i.v. B16F10 cells; format: in vivo, C57BL/6 mice; settings: day 21
Method: C57BL/6 female mice were used, which were 12 weeks old at initiation of the experiment. […] The DDS system was LLG in the form of nano particles. The test system was MMC formulated in the novel DDS of the present invention, denoted MMC/DDS.
Group 1 is a control group of healthy mice that were not inoculated with tumor cells.
B16F10 cells were grown in cell culture flasks. […] The injected dose was 5×10^5 cells in 50 μl PBS.
Treatments were given on days 1, 5 and 9. […] All injected volumes were 0.1 ml. The experiment was terminated 21 days post tumor inoculation. The animals were sacrificed, and the lungs were removed, weighed, and fixed in Bouin's solution. Lung weight increase was calculated using the following formula: Lung weight increase(%)=100×(tumor lung weight−normal lung weight)/normal lung weight Surface metastases were counted by an expert using a dissecting microscope.
Quantitative evaluation of metastases in the lungs can be performed by two independent measurements: actual counting of the metastases in excised and properly fixed lungs; and/or measurement of the increase in the weight of the lungs due to the metastases in the animals injected with tumor cells. Both techniques were implemented in the present study.

[3] = i.v. tail vein, MMC 2 mg/kg
Method: Female BALB/c mice which were 8 weeks old at initiation of the experiment were used. […] The MMC dose was 2 mg/kg body, in both free and DDS formulations and the DDS dose was 1 mg/ml.
(§1) Treatments were given on days 5, 12 and 19. Administration was by injection into the tail vein. All injected volumes were 0.1 ml.
At selected periods post-injection, animals receiving drug-containing formulations were bled, and samples were treated according to established protocols. MMC concentration was determined by HPLC assay.

[4] = tested on: cell line C26 (mouse colon carcinoma); settings: 4 hours exposure, viable cells 24 hours from start, MMC 30 and 50 μg/ml
From the text: This is an inherent multidrug resistant (MDR) line originating from mouse colon carcinoma.

[5] = tested on: C-26 cells (mouse colon carcinoma); settings: Run 1
Method: Female BALB/c mice which were 8 weeks old at initiation of the experiment were used. The tumor model employed was C-26 cells (originating from mouse colon carcinoma) injected subcutaneously into the right hind footpad. […] The MMC dose was 2 mg/kg body, in both free and DDS formulations and the DDS dose was 1 mg/ml.
To provide the tumor, C-26 cells were grown in cell culture flasks. At day zero, the cells were harvested, washed several times, counted and immediately injected. The injected dose was 8×10^5 cells in 30 μl.
as §1
Parameters measured for Run 1 were retention in circulation, tumor onset, tumor volume, survival. Parameters measured for Run 2 were survival.

[6] = tested on: MCF7 cells (human breast carcinoma); assay: BSA-FITC entry into cells, confocal microscopy; format: cell-based; settings: MCF7, 3.3 mg/ml, 25° C., 60 minutes
Method: Bovine serum albumin tagged with the fluorescent marker FITC (BSA-FITC) in both free form and entrapped in the DDS was used to determine whether DDS can also induce the entry of large macromolecules into cells. The free and the DDS-entrapped BSA-FITC were incubated at 25° C. for 60 minutes with confluent monolayers of MCF7 cells (originating from human breast carcinoma). MCF-7 cells are reported to have two known receptors for hyaluronic acid—ICAM-1 and CD44. The protein/DDS systems were cleaned from the free protein. The free and the entrapped protein were at the same concentration: 3.3 mg/ml. At the end of the incubation the cells were viewed by means of confocal microscopy.

## O=C(N[C@H](CO)[C@H](O)c1ccc([N+](=O)[O-])cc1)C(Cl)Cl [Chloramphenicol]
[1]; Micro-gagomers
  Encapsulation Efficiency (%) By Kinetics: 30.5 ± 1.9%
  Encapsulation Efficiency (%) By Thermodynamics: 39.3 ± 3.9%
[1]; Nano-gagomers
  Encapsulation Efficiency (%) By Kinetics: 47.1 ± 1.5%
  Encapsulation Efficiency (%) By Thermodynamics: 47.4 ± 0.3%

## COc1cccc2c1C(=O)c1c(O)c3c(c(O)c1C2=O)C[C@@](O)(C(=O)CO)C[C@@H]3O[C@H]1C[C@H](N)[C@H](O)[C@H](C)O1 [Doxorubicin, doxorubicin]
[1]; Micro-gagomers
  Encapsulation Efficiency (%) By Kinetics: 50.2 ± 1.2%
  Encapsulation Efficiency (%) By Thermodynamics: 52.4 ± 6.3%
[1]; Nano-gagomers
  Encapsulation Efficiency (%) By Kinetics: 53.6 ± 0.9%
  Encapsulation Efficiency (%) By Thermodynamics: 57.0 ± 3.7%

## CC[n+]1c(-c2ccccc2)c2cc(N)ccc2c2ccc(N)cc21 [EtBr, ethidium bromide]
[2]
  efflux of the entrapped marker in the course of the incubation: ≤ 2%

## CO[C@@]12[C@H](COC(N)=O)C3=C(C(=O)C(C)=C(N)C3=O)N1C[C@@H]1N[C@@H]12 [Mitomycin C, mitomycin C]
B16F10 (mouse melanoma); saline group close to 400%
  increase in lung weight, in words: almost the same
B16F10 (mouse melanoma); lungs, MMC 5 mg/Kg
  number of lung metastases versus saline group: no statistical difference
[3]
  retention in circulation: disappears very quickly from the circulation
[4]
  cell death (compared to untreated control): under 15%
[5]; 3 i.v. doses
  increase in tumor volume / tumor growth rate: not much different than in the saline group
[5]; treatments on days 5, 12 and 19, MMC 2 mg/kg
  day on which tumor was first detected: 7 days

## free BSA-FITC: Bovine serum albumin tagged with the fluorescent marker FITC, free form
[6]
  protein entry into the cells: Some of the protein gained entry into the cell
  protein entry into the nucleus: not inside the nucleus

## α-Interferon
[1]; DDS microparticles, insulin concentration 10 mg/ml
  Encapsulation Efficiency (%): 72.5 ± 3.7%
